Reference: US6235493A, “Amino acid substituted-cresyl violet, synthetic fluorogenic substrates for the analysis of agents in individual in vivo cells or tissue” (priority 1998, dated 2001)

What was measured:
cathepsin B [1] = molecular target: T1, cathepsin B (Rattus norvegicus, UniProt P00787); experiment: Cathepsin B activity in living rat hepatocytes (CSLM, (Z-Arg)^2 -cresyl violet); format: cell-based; settings: living rat hepatocyte, 10 μM substrate (printed μm), 5 min, PBS
Protocol: (§1) Cathepsin B activity was detected in real-time in living CC531 cells and freshly prepared living rat hepatocytes after isolation by collagenase perfusion of livers of male mature rats after 24 h of starvation (47). At time point zero, cell preparations were diluted 20-fold in PBS containing either 10 μM (Z-Arg)^2 -cresyl violet (Enzyme Systems Products, Dublin, Calif.) as fluorogenic substrate for cathepsin B (48) or 10 μM substrate and 20 μM FMK (Protek, Dublin, Calif.), as selective cathepsin B inhibitor (40,41). The fluorogenic substrate is not fluorescent but after proteolytic cleavage, liberated cresyl violet is fluorescent. Synthesis of the substrate is described elsewhere in Ref. 48. The substrate was dissolved first in dimethyl formamide (final concentration in the incubation medium was 1% (v/v)). An aliquot of 100 μl of the cell suspensions was brought into a well formed by a stainless steel ring attached to a glass slide (49). Images of cells were captured in real-time with a Leica CSLM fitted to a Leica Fluovert inverted microscopic equipped with a PL APO oil-immersion objective (×63, NA 1.40). Excitation was performed at a wavelength of 560 nm and fluorescence was captured at greater than 580 nm. […] Images in the X-Y plane were recorded with intervals of 0.5 μm in the Z direction. […] Images were recorded in a 512×512 pixel format. […]

[2] = test system: living hepatocytes and colon cancer cells; experiment: Penetration of cresyl violet-based substrates into living cells; format: cell-based, rat
Protocol: as §1, with “Images of cells were captured in real-time with a Leica CSLM fitted to a Leica Fluovert inverted microscopic equipped with a PL APO oil-immersion objective (×63, NA 1.40).” left out
The localization properties of cresyl violet in individual cells were investigated using confocal microscopy. […] The fluorescence is localized only in patches at the plasma membrane. […]

cathepsin B [3] = molecular target: T1, cathepsin B; experiment: Cathepsin B activity in living CC531 colon cancer cells (CSLM, (Z-Arg)^2 -cresyl violet); format: cell-based; settings: living CC531 cells, 10 μM substrate (printed μm), 5 min, PBS
Protocol: An established rat colon carcinoma cell line, CC531, was used for all experiments. The parental cell line was obtained from a 1,2-dimethylhydrazine-induced moderately differentiated and weakly immunogenic colon adenocarcinoma in WAG-Rij rats (44). Cells were cultured in vitro at 37° C. as monolayers in Dulbecco's modification of Eagle's medium (ICN Biomedicals, Irvine, Ayrshire, UK) supplemented with 10% (w/v) fetal bovine serum, 2 mM glutamine, 100 IU penicillin/ml and 100 μg streptomycin/ml. Cells were washed in PBS and, after detachment by scraping and centrifugation (250 g, room temperature, 10 min), a single cell suspension at a final concentration of 1×10^6 cancer cells in 50 μl of PBS was obtained with a viability of at least 95% (45,46). Cell suspension were either used for cytochemical purposes or for in vivo administration to induce metastases in the liver.
Cathepsin B activity was detected in real-time in living CC531 cells and freshly prepared living rat hepatocytes after isolation by collagenase perfusion of livers of male mature rats after 24 h of starvation (47). At time point zero, cell preparations were diluted 20-fold in PBS containing either 10 μM (Z-Arg)^2 -cresyl violet (Enzyme Systems Products, Dublin, Calif.) as fluorogenic substrate for cathepsin B (48) or 10 μM substrate and 20 μM FMK (Protek, Dublin, Calif.), as selective cathepsin B inhibitor (40,41). The fluorogenic substrate is not fluorescent but after proteolytic cleavage, liberated cresyl violet is fluorescent. Synthesis of the substrate is described elsewhere in Ref. 48. The substrate was dissolved first in dimethyl formamide (final concentration in the incubation medium was 1% (v/v)). An aliquot of 100 μl of the cell suspensions was brought into a well formed by a stainless steel ring attached to a glass slide (49). Images of cells were captured in real-time with a Leica CSLM fitted to a Leica Fluovert inverted microscopic equipped with a PL APO oil-immersion objective (×63, NA 1.40). Excitation was performed at a wavelength of 560 nm and fluorescence was captured at greater than 580 nm. Excitation with the use of green light is harmless to living cells. The pinhole aperture was set at 100 giving an optimized image (50). With fixed pinhole, filter combination and a laser power setting adjusted to give minimal fading, the photomultiplier gain and photometric offset were optimized. Cells were subjected to optical serial sectioning after each 60 s of incubation up to 300 s. Images in the X-Y plane were recorded with intervals of 0.5 μm in the Z direction. For analysis, each optical section was averaged eight times. Images were recorded in a 512×512 pixel format. The size of each pixel represented 0.015 μm^2 in the object. […]

T1 sequence (P00787 80-333): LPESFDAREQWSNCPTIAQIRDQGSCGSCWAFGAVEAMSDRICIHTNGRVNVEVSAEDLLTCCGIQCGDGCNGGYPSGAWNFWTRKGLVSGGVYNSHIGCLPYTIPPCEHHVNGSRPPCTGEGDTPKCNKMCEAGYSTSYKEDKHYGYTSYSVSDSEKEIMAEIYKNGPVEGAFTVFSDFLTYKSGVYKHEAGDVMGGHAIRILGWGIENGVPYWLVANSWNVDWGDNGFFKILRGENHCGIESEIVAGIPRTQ

cell penetration [2]: penetrate living cells
Structure (SMILES): N=C(N)NCCC[C@H](NC(=O)OCc1ccccc1)C(=O)NC1=CC2Oc3cc(NC(=O)[C@H](CCCNC(=N)N)NC(=O)OCc4ccccc4)ccc3N=C2c2ccccc21 (stereo partly drawn) [[Z-Arg]^2-cresyl violet]
localization of cathepsin B activity (cresyl violet fluorescence) (cathepsin B [1]): present in granular lysosome-like intracellular compartments
localization of cathepsin B activity (cresyl violet fluorescence) (cathepsin B [3]): found at the plasma membrane (large arrowheads) and intracellularly
